The results in this text go back to patent US20230257419A1, “PHARMACEUTICAL COMPOSITION FOR PREVENTING OR TREATING A PERIODONTAL DISEASE OR DISLOCATED TRAUMATIC TOOTH” (HYSENSBIO, priority 2020, published 2023).

One test relates to BSP gene. Put plainly: BSP mRNA expression by real-time PCR in human periodontal ligament cells. In kind it is cell-based. To be noted: average of three experiments.
Another test relates to CAP gene. The experiment in a line: CAP mRNA expression by real-time PCR in human periodontal ligament cells. Type of test: cell-based. The conditions noted are these: average of three experiments. Background: Real-time PCR tracks product formation cycle by cycle.
The test system of a further test is periostin gene. Put plainly: Periostin mRNA expression by real-time PCR in human periodontal ligament cells. In kind it is cell-based. To be noted: average of three experiments.
Test [1] relates to three-wall periodontal defect. Put plainly: Periodontium regeneration in periodontium damage animal model, histological evaluation. Type of test: in vivo. The conditions noted are these: beagle dog, collagen sponge containing 50 μg peptide, 3 months. On the procedure:
Four beagle dogs (12-16 kg; […]) were anesthetized by inhalation of Geloran, intravenously injected with Zoletil (5 mg/kg) and Xylazine (0.2-0.5 mg/kg), and then treated with Lidocaine (Lidocaine 2% with 1:80,000 epinephrine). The 4th premolar tooth and the 2nd molar tooth were extracted from the mandible of the beagle dog, and then the dog waited for healing for 3 months. After 3 months of healing, three-wall periodontal defect was induced on distal and mesial surfaces of a 1st molar tooth. Then, a periodontal damage of 4×4×4 mm was formed with the buccal and distal bones remaining around the tooth root, the root alveolar bone is securely removed, tooth root planing was performed using a curette, and then an incisor groove was formed using a ½ round bur. Next, an experimental group was transplanted with a collagen sponge (a peptide solution obtained by dissolving a peptide in physiological saline at a concentration of 1 μg/μl was prepared, 50 μl of a peptide solution was added to the EP tube, and then was soaked for 5 minutes to prepare the collagen sponge) including a 50 μl of peptide (SEQ ID NO: 16 of group 2) prepared in Example 1 at a defect region, After the defect, only a negative control (NC) without any treatment and a collagen sponge (prepared by soaking a collagen sponge in 50 μl of physiological saline for 5 minutes) was placed on the inner bone wall of a bone defect and a transplanted negative control (NC+Plug) was sacrificed 3 months later, and histological evaluation was performed. After 3 months, a beagle dog was sacrificed by administering an excessive amount (90-120 mg/kg) of pentobarbital. A tooth of the beagle dog was extracted, fixed with 10% formalin, and then calcium was removed by adding 5% formic acid, molded, and embedded in paraffin, to obtain a tissue section with a thickness of 5 μm. The obtained tissue section was stained with hematoxylin and eosin or collagen stained (Masson's Trichrome Staining) to confirm periodontal ligament regeneration and then analyzed using by an optical microscope equipped with a digital camera (LEICA ICC50 camera, Germany). After extraction of a 4th premolar tooth and a 2nd molar tooth from the mandibles of 4 beagle dogs, they waited for 3 months to heal, and After 3 months of healing, the 3-mural periodontal defect was induced in distal and mesial surfaces of a 1st molar tooth. Then, periodontium damage of 4×4×4 mm was formed with the buccal and distal bones remaining around the tooth root, the root alveolar bone is securely removed, tooth root planing was performed using a curette, and then an incisor groove was formed. Next, the experimental group transplanted a collagen sponge containing 50 μg of the peptide (SEQ ID NO: 16) of Example 1 to the defect region, and after the defect, a negative control (NC) without any treatment and control (NC+Plug) transplanted by placing only a collagen sponge on the inner bone wall of the bone defect was sacrificed 3 months later for histological evaluation.

Where [2] appears, read: Masson's trichrome stain, FIG. 6.

Procedure for BSP gene: (§1) Specifically, all experiments were performed with the consent of the patient after obtaining approval from the Hospital's Institutional Review Board, a periodontal ligament tissue attached to the root of a wisdom tooth was isolated and cut into double-sided pieces, placed in a 60 mm dish, and covered with a cover slip, and then cultured in Dulbecco's degenerated Eagle's Medium.
(§2) Total RNA from human periodontal ligament cells was isolated using a TRIzol reagent. cDNA was synthesized using 2 μg of total RNA, 1 μl of reverse transcriptase, and 0.5 μg of oligo (dT). cDNA of synthesized human periodontal ligament cells was used for a real-time polymerase chain reaction using primers shown in Table 2 below. A real-time polymerase chain reaction was performed in ABI PRISM 7500 sequence detection system (Applied Biosystems) using SYBR GREEN PCR Master Mix (Takara, Japan). The real-time polymerase chain reaction was performed at 94° C., 1 min; 95° C., 15 sec-60° C., 34 sec was performed under the condition of repeating 40 cycles. Results were analyzed using a comparative cycle threshold (CT) method.
Procedure for CAP gene: as §1, §2
Procedure for periostin gene: as §1, §2

As for 6 (KYKQKRKNYK) [compound 6], the “BSP gene expression, relative mRNA expression level compared to the control, Average” value in the test with BSP gene worked out at 2.705. The “CAP gene expression, relative mRNA expression level compared to the control, Average” value with CAP gene is given as 2.705. Besides, the “PERIOSTIN gene expression, relative mRNA expression level compared to the control, Average” value in the test on periostin gene was found to be 2.705.
Consider 4 (KYKQRRRNYK) [compound 4], for which the “BSP gene expression, relative mRNA expression level compared to the control, Average” value in the test on BSP gene is given as 2.702. In addition, the “CAP gene expression, relative mRNA expression level compared to the control, Average” value with CAP gene is 2.702. In addition, the “PERIOSTIN gene expression, relative mRNA expression level compared to the control, Average” value with periostin gene is recorded as 2.702.
As for 15 (KYKQKKRSYK) [compound 15], the “BSP gene expression, relative mRNA expression level compared to the control, Average” value in the test with BSP gene is 2.620. The “CAP gene expression, relative mRNA expression level compared to the control, Average” value in the test on CAP gene is 2.620. Also, in the test on periostin gene, the “PERIOSTIN gene expression, relative mRNA expression level compared to the control, Average” value was determined as 2.620.
Turning to 16 (KYKQKRRSYK) [compound 16], the “BSP gene expression, relative mRNA expression level compared to the control, Average” value in the test with BSP gene was determined as 2.606. In the test with CAP gene, the “CAP gene expression, relative mRNA expression level compared to the control, Average” value was 2.467. Moreover, in the test on periostin gene, the “PERIOSTIN gene expression, relative mRNA expression level compared to the control, Average” value is on record as 2.403.
For 14 (KYKQKRKSYK) [compound 14], in that order: 2.836, 2.836 and 2.836.
For 13 (KYKQKKKSYK) [compound 13], in that order: 2.525, 2.525 and 2.525.
For 5 (KYKQKKKNYK) [compound 5], in that order: 2.67, 2.67 and 2.67.
With 12 (KYKQRRRSYK) [compound 12], in the test on BSP gene, the “BSP gene expression, relative mRNA expression level compared to the control, Average” value stood at 2.211. The “CAP gene expression, relative mRNA expression level compared to the control, Average” value in the test on CAP gene is 2.211. Further, the “PERIOSTIN gene expression, relative mRNA expression level compared to the control, Average” value in the test with periostin gene was found to be 2.211.
In the case of 7 (KYKQKKRNYK) [compound 7], in the test with BSP gene, the “BSP gene expression, relative mRNA expression level compared to the control, Average” value is 2.215. For the same substance, the “CAP gene expression, relative mRNA expression level compared to the control, Average” value in the test on CAP gene came out at 2.451. Further, the “PERIOSTIN gene expression, relative mRNA expression level compared to the control, Average” value in the test on periostin gene stood at 2.329.
For the substance 3 (KYKQRRKNYK) [compound 3], the “BSP gene expression, relative mRNA expression level compared to the control, Average” value in the test on BSP gene turned out to be 2.572. Besides, the “CAP gene expression, relative mRNA expression level compared to the control, Average” value in the test on CAP gene turned out to be 2.572. Besides, the “PERIOSTIN gene expression, relative mRNA expression level compared to the control, Average” value in the test with periostin gene is reported as 2.572.
Regarding 2 (KYKQRKRNYK) [compound 2], in the test with BSP gene, the “BSP gene expression, relative mRNA expression level compared to the control, Average” value came to 2.361. The “CAP gene expression, relative mRNA expression level compared to the control, Average” value in the test with CAP gene is reported as 2.361. Further, the “PERIOSTIN gene expression, relative mRNA expression level compared to the control, Average” value in the test on periostin gene is listed as 2.361.
8 (KYKQKRRNYK) [compound 8]: the “BSP gene expression, relative mRNA expression level compared to the control, Average” value in the test with BSP gene came to 2.021. Moreover, the “CAP gene expression, relative mRNA expression level compared to the control, Average” value in the test on CAP gene is on record as 2.021. The “PERIOSTIN gene expression, relative mRNA expression level compared to the control, Average” value in the test on periostin gene came out at 2.021.
As to 11 (KYKQRRKSYK) [compound 11], the “BSP gene expression, relative mRNA expression level compared to the control, Average” value in the test on BSP gene came to 2.362. For the same substance, in the test with CAP gene, the “CAP gene expression, relative mRNA expression level compared to the control, Average” value was determined as 2.362. Further, the “PERIOSTIN gene expression, relative mRNA expression level compared to the control, Average” value in the test with periostin gene is reported as 2.362.
Regarding 9 (KYKQRKKSYK) [compound 9], the “BSP gene expression, relative mRNA expression level compared to the control, Average” value with BSP gene was 2.211. For the same substance, in the test on CAP gene, the “CAP gene expression, relative mRNA expression level compared to the control, Average” value was 2.211. Moreover, the “PERIOSTIN gene expression, relative mRNA expression level compared to the control, Average” value in the test with periostin gene was 2.211.
With 1 (KYKQRKKNYK) [compound 1], the “BSP gene expression, relative mRNA expression level compared to the control, Average” value with BSP gene was found to be 2.092. Besides, the “CAP gene expression, relative mRNA expression level compared to the control, Average” value in the test on CAP gene worked out at 2.092. In addition, in the test with periostin gene, the “PERIOSTIN gene expression, relative mRNA expression level compared to the control, Average” value turned out to be 2.092.
With 10 (KYKQRKRSYK) [compound 10], the “BSP gene expression, relative mRNA expression level compared to the control, Average” value in the test with BSP gene is listed as 2.811. Further, the “CAP gene expression, relative mRNA expression level compared to the control, Average” value in the test on CAP gene is given as 2.811. In addition, in the test on periostin gene, the “PERIOSTIN gene expression, relative mRNA expression level compared to the control, Average” value turned out to be 2.811.
Take “KYKQKRRSYK [SEQ ID NO: 16, Group 2 peptide, 8th amino acid is serine (S)]”: in test [1] (setting [2]), the “incorporation of new periodontal ligament fiber bundle into alveolar bone and cementum” value is “A new periodontal ligament fiber bundle was vertically incorporated in the newly formed alveolar bone and cementum”; the “new cementum-like tissue formation” value is on record as “new cementum-like tissue was observed along a tooth root surface”; the “new periodontal ligament-like tissue formation” value is given as “new periodontal ligament-like tissue formation was also observed”. For the same substance, in test [1] (hematoxylin/eosin, FIG. 5), the “incorporation of new periodontal ligament into alveolar bone and cementum” value is “New periodontal ligament was incorporated in the newly formed alveolar bone and cementum”; the “new cementum-like tissue formation” value is “new cementum-like tissue was observed along a tooth root surface”; the “new periodontal ligament-like tissue formation” value is listed as “new periodontal ligament-like tissue formation was also observed”.
